In the first assay the target is human erythrocyte 20S proteasome (Homo sapiens, UniProt P28074). Put plainly: 20S proteasome inhibition assay (chymotrypsin-like activity, Suc-LLVY-AMC substrate).
Details: not given
As to `COc1c(/C=C/C(C)(C)OC)ccc2c1C(=O)OCc1cc(C)cc(O)c1O2` [Compound 1, 3′-O-methyldehydroisopenicillide], the IC50 stood at 30.5 ± 1.5 µM.

Regarding `C=C(C)[C@@H](O)[C@H](O)c1ccc2c(c1OC)C(=O)OCc1cc(C)cc(O)c1O2` [Compound 2, pestalotiollide B], the half-maximal inhibitory concentration (IC50) amounted to 18.5 ± 4.2 µM.

As to `C=C(C)[C@@H](O)[C@@H](O)c1ccc2c(c1OC)C(=O)OCc1cc(C)cc(O)c1O2` [Compound 3, pestalotiollide A], the IC50 came out at 12.4 ± 1.1 µM. The molecule `COc1c(/C=C/C(C)(C)O)ccc2c1C(=O)OCc1cc(C)cc(O)c1O2` [Compound 4, dehydroisopenicillide] gave a half-inhibitory concentration (IC50) greater than 100 µM. The molecule `COC1=CC(=O)OC(CO)C1` (centres unmarked) [Compound 5, 6-hydroxymethyl-4-methoxy-5,6-dihydro-2H-pyran-2-one] yielded an IC50 of 20.5 ± 2.3 µM.

As to `COc1cc(C(C)(O)C(C)O)oc(=O)c1` (centres unmarked) [Compound 6, pestalotiopyrone D], the IC50 is greater than 100 µM. The molecule `COc1cc(C(C)C(C)O)oc(=O)c1` (centres unmarked) [Compound 7, pestalotiopyrone E] gave an IC50 greater than 100 µM. Molecule `C/C=C(/C)c1cc(OC)cc(=O)o1` [Compound 8, pestalotiopyrone G] gave an IC50 of 1.2 ± 0.3 µM.

Molecule `CCC[C@@H](O)[C@H](O)C1CC(OC)=CC(=O)O1` (some centres unmarked) [Compound 9, LL-P880b] came in with an IC50 of 8.9 ± 1.5 µM. Compared with the last molecule, the IC50 is about 7.4-fold higher.

With `CCC(O)C[C@H](O)C1CC(OC)=CC(=O)O1` (some centres unmarked) [Compound 10, photipyrone B], the IC50 stood at 7.9 ± 1.8 µM.

The assay is the same for the next values; noted with them: chymotrypsin-like activity.
Consider `C/C=C(/C)c1cc(OC)cc(=O)o1` [Compound 8, pestalotiopyrone G], for which the “20S proteasome inhibitory activity (in words)” value is listed as “strong activity”.

A word on the IC50: it is the concentration that inhibits the measured activity by half. Low readings indicate greater potency, high ones weaker potency.

These data come from PMC6273089, “Secondary Metabolites Produced by an Endophytic Fungus Pestalotiopsis sydowiana and Their 20S Proteasome Inhibitory Activities” (Molecules, 2016).
